In patent US7786113B2, “Heterocyclic carbamate derivatives, their manufacture and use as pharmaceutical agents” (Hoffman-La Roche Inc., priority 2004, dated 2010):

Legend:
[1] = biological target: T1, Lck (p56^lck) (Homo sapiens, UniProt P06239); assay: SRC-Inhibitor-Assay (time-resolved fluorescence kinase assay), Lck; format: biochemical; settings: ATP 5 μM, peptide 10 μM, enzyme 2.5 U/ml, pH 7.3
T1 construct: purchased UBI, Upstate Biotech, Inc
Source text: (§1) The activity of the compounds according to this invention as inhibitors for the src-family tyrosine kinases was shown by using the following assay.
(§2) ATP, Tween™ 20, 4-(2-hydroxyethyl)-1-piperazineethanesulfonic acid (HEPES) were purchased from Roche Molecular Biochemicals, MgCl2 and MnCl2 were purchased from Merck Eurolab, Tris(2-carboxyethyl)phosphine hydrochloride (TCEP) was purchased from Pierce, 384 Well low volume fluorescence plates was purchased from Falcon.
(§3) At first the enzyme is pre-incubated for 15 min. at 15° C. in aqueous solution with corresponding amounts of inhibitors according to this invention. Then the phosphorylation reaction is started by adding a reaction mixture, containing ATP, Peptide and PT66, and subsequent shaking. The proceeding of this reaction is immediately monitored using time resolved fluorescence spectroscopy in a suitable well plate reader.
(§4) The IC50-values can be obtained from the reaction rates by using a non-linear curve fit (XLfit software (ID Business Solution Ltd., Guilford, Surrey, UK))

[2] = biological target: T2, Src (p60^c-src) (Homo sapiens, UniProt P12931); assay: SRC-Inhibitor-Assay (time-resolved fluorescence kinase assay), Src; format: biochemical; settings: ATP 5 μM, peptide 10 μM, enzyme 2.5 U/ml, pH 7.3
T2 construct: purchased UBI, Upstate Biotech, Inc
Source text: as §1, §2, §3, §4

T2 sequence (P12931 whole entry): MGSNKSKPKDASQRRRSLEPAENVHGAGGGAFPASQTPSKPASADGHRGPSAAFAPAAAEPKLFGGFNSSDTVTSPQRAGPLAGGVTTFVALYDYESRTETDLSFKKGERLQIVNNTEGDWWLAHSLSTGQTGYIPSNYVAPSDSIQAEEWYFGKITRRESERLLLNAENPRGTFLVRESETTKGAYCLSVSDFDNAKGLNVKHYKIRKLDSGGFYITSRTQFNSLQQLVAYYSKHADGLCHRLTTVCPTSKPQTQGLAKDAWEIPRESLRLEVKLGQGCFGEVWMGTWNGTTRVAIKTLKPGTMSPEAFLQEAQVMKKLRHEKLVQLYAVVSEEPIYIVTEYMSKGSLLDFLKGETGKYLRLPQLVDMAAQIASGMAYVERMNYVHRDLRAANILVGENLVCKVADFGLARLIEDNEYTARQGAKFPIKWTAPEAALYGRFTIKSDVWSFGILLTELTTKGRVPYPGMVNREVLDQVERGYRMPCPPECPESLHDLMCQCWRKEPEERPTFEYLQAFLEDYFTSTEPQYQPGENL
T1 sequence (P06239 whole entry): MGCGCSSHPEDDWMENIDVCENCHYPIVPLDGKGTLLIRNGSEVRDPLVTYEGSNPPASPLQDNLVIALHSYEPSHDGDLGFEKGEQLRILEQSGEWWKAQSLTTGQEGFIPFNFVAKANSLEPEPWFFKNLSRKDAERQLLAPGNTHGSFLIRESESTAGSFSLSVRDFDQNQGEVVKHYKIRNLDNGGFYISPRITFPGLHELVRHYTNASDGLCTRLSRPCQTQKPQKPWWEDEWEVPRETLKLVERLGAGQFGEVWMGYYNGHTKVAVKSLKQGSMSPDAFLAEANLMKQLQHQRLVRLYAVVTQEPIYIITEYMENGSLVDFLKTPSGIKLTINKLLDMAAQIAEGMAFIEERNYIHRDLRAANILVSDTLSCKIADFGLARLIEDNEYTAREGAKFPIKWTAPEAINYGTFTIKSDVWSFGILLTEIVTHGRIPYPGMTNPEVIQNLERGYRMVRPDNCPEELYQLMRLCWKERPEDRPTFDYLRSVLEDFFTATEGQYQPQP

SMILES	IC50 [1] [µM]	IC50 [2] [µM]
C#CC(C)OC(=O)Nc1cnc2[nH]c(-c3ccccc3)nc2c1 (stereo not shown) [Example 1-15, (2-Phenyl-3H-imidazo[4,5-b]pyridin-6-yl)-carbamic acid 1-methyl-prop-2-ynyl ester]	0.1 to 9	0.01 to 0.5
CC(OC(=O)Nc1cnc2[nH]c(-c3ccccc3)nc2c1)C(F)(F)F (stereo not shown) [Example 1-11, (2-Phenyl-3H-imidazo[4,5-b]pyridin-6-yl)-carbamic acid 2,2,2-trifluoro-1-methyl-ethyl ester]	5 to 10	0.228
CCN(CC)CCOc1ccc(-c2nc3cc(NC(=O)OC(C)C)cnc3[nH]2)cc1 [Example 2-1, {2-[4-(2-Diethylamino-ethoxy)-phenyl]-3H-imidazo[4,5-b]pyridin-6-yl}-carbamic acid isopropyl ester]	0.1 to 9	0.01 to 0.5
CC#CC(C)OC(=O)Nc1cnc2[nH]c(-c3ccccc3)nc2c1 (stereo not shown) [Example 1-16, (2-Phenyl-3H-imidazo[4,5-b]pyridin-6-yl)-carbamic acid 1-methyl-but-2-ynyl ester]	0.1 to 9	0.01 to 0.5
CC(C)OC(=O)Nc1cnc2[nH]c(-c3cccc(CCO)c3)nc2c1 [Example 2-9, {2-[3-(2-Hydroxy-ethyl)-phenyl]-3H-imidazo[4,5-b]pyridin-6-yl}-carbamic acid isopropyl ester]	0.1 to 9	0.01 to 0.5
C=CCOC(=O)Nc1cnc2[nH]c(-c3ccc(OCCOC)cc3)cc2c1 [Example 9-5, {2-[4-(2-Methoxy-ethoxy)-phenyl]-1H-pyrrolo[2,3-b]pyridin-5-yl}-carbamic acid allyl ester]	0.1 to 9	0.01 to 0.5
CC(C)OC(=O)Nc1cnc2nc(-c3ccccc3)[nH]c2c1 [Example 1-2, (2-Phenyl-1H-imidazo[4,5-b]pyridin-6-yl)-carbamic acid isopropyl ester]	0.1 to 9	0.01 to 0.5
COCC(COC)NC(=O)c1cccc(-c2nc3cc(NC(=O)OC(C)C)cnc3[nH]2)c1 [Example 11-2, {2-[3-(2-Methoxy-1-methoxymethyl-ethylcarbamoyl)-phenyl]-3H-imidazo[4,5-b]pyridin-6-yl}-carbamic acid isopropyl ester]	0.1 to 9	0.01 to 0.5
CC(C)OC(=O)Nc1cnc2[nH]c(-c3cccc(S(C)(=O)=O)c3)nc2c1 [Example 8-2, [2-(3-Methylsulfonyl-phenyl)-3H-imidazo[4,5-b]pyridin-6-yl]-carbamic acid isopropyl ester]	0.1 to 9	0.01 to 0.5
CCCOC(=O)Nc1cnc2nc(-c3ccccc3)[nH]c2c1 [Example 1-14, (2-Phenyl-1H-imidazo[4,5-b]pyridin-6-yl)-carbamic acid propyl ester]	0.1 to 9	0.01 to 0.5
CC(C)OC(=O)Nc1cnc2[nH]c(-c3ccc(N4CCN(C)CC4)cc3)nc2c1 [Example 2-8, {2-[4-(4-Methyl-piperazin-1-yl)-phenyl]-3H-imidazo[4,5-b]pyridin-6-yl}-carbamic acid isopropyl ester]	0.1 to 9	0.01 to 0.5
CC(C)OC(=O)Nc1cnc2[nH]c(-c3ccc(N)cc3)nc2c1 [Example 5-2, [2-(4-Amino-phenyl)-3H-imidazo[4,5-b]pyridin-6-yl]-carbamic acid isopropyl ester]	0.1 to 9	0.01 to 0.5
Cc1cc(-c2nc3cc(NC(=O)OC(C)C)cnc3[nH]2)ccn1 [Example 3-1, [2-(2-Methyl-pyridin-4-yl)-3H-imidazo[4,5-b]pyridin-6-yl]-carbamic acid isopropyl ester]	0.1 to 9	0.01 to 0.5
CC(C)C(C)OC(=O)Nc1cnc2[nH]c(-c3ccccc3)nc2c1 (stereo not shown) [Example 1-19, (2-Phenyl-3H-imidazo[4,5-b]pyridin-6-yl)-carbamic acid 1,2-dimethyl-propyl ester]	2 to 9	0.5 to 1.5
CC(=O)Nc1cccc(-c2nc3cc(NC(=O)OC(C)C)cnc3[nH]2)c1 [Example 6-1, [2-(3-Acetylamino-phenyl)-3H-imidazo[4,5-b]pyridin-6-yl]-carbamic acid isopropyl ester]	0.791	0.039
COCCOc1ccc(-c2nc3cc(NC(=O)OC(C)C)cnc3[nH]2)cc1 [Example 2-3, {2-[4-(2-Methoxy-ethoxy)-phenyl]-3H-imidazo[4,5-b]pyridin-6-yl}-carbamic acid isopropyl ester]	0.1 to 9	0.01 to 0.5
CC(C)OC(=O)Nc1cnc2[nH]c(-c3cccc(C(=O)O)c3)nc2c1 [Example 11-1, 3-(6-Isopropoxycarbonylamino-3H-imidazo[4,5-b]pyridin-2-yl)-benzoic acid]	2 to 9	0.5 to 1.5
COCCCNC(=O)c1cccc(-c2nc3cc(NC(=O)OC(C)C)cnc3[nH]2)c1 [Example 11-3, {2-[3-(3-Methoxy-propylcarbamoyl)-phenyl]-3H-imidazo[4,5-b]pyridin-6-yl}-carbamic acid isopropyl ester]	0.1 to 9	0.01 to 0.5

SMILES	IC50 [1] [µM]	IC50 [2] [µM]
CC(C)OC(=O)Nc1cnc2[nH]c(-c3ccc(F)c(F)c3)nc2c1 [Example 10-1, [2-(3,4-Difluoro-phenyl)-3H-imidazo[4,5-b]pyridin-6-yl]-carbamic acid isopropyl ester]	0.1 to 9	0.01 to 0.5
CC(OC(=O)Nc1cnc2[nH]c(-c3ccccc3)nc2c1)c1ccccc1 (stereo not shown) [Example 1-13, (2-Phenyl-3H-imidazo[4,5-b]pyridin-6-yl)-carbamic acid 1-phenyl-ethyl ester]	0.1 to 9	0.01 to 0.5
CC(C)OC(=O)Nc1cnc2[nH]c(-c3cccc(N)c3)nc2c1 [Example 5-1, [2-(3-Amino-phenyl)-3H-imidazo[4,5-b]pyridin-6-yl]-carbamic acid isopropyl ester]	0.1 to 9	0.01 to 0.5
CC(=O)Nc1cccc(-c2cc3cc(NC(=O)OCc4ccccc4)cnc3[nH]2)c1 [Example 9-23, [2-(3-Acetylamino-phenyl)-1H-pyrrolo[2,3-b]pyridin-5-yl]-carbamic acid benzyl ester]	0.1 to 9	0.01 to 0.5
C=CC(C)OC(=O)Nc1cnc2[nH]c(-c3ccccc3)nc2c1 (stereo not shown) [Example 1-1, (2-Phenyl-3H-imidazo[4,5-b]pyridin-6-yl)-carbamic acid 1-methyl-allyl ester]	0.1 to 9	0.01 to 0.5
CCOC(=O)Nc1cnc2[nH]c(-c3ccc(OCCOC)cc3)cc2c1 [Example 9-4, {2-[4-(2-Methoxy-ethoxy)-phenyl]-1H-pyrrolo[2,3-b]pyridin-5-yl}-carbamic acid ethyl ester]	0.1 to 9	0.01 to 0.5
CC(=O)Nc1cccc(-c2cc3cc(NC(=O)OCC(C)C)cnc3[nH]2)c1 [Example 9-28, [2-(3-Acetylamino-phenyl)-1H-pyrrolo[2,3-b]pyridin-5-yl]-carbamic acid isobutyl ester]	0.1 to 9	0.01 to 0.5
O=C(Nc1cnc2[nH]c(-c3ccccc3)nc2c1)OC1CCC1 [Example 1-17, (2-Phenyl-3H-imidazo[4,5-b]pyridin-6-yl)-carbamic acid cyclobutyl ester]	0.1 to 9	0.01 to 0.5
CC(C)OC(=O)Nc1cnc2[nH]c(-c3cccc([N+](=O)[O-])c3)nc2c1 [Example 2-4, [2-(3-Nitro-phenyl)-3H-imidazo[4,5-b]pyridin-6-yl]-carbamic acid isopropyl ester]	1.34	0.185
CC(C)OC(=O)Nc1cnc2[nH]c(-c3ccc(N4CCOCC4)cc3)nc2c1 [Example 2-5, [2-(4-Morpholin-4-yl-phenyl)-3H-imidazo[4,5-b]pyridin-6-yl]-carbamic acid isopropyl ester]	0.1 to 9	0.01 to 0.5
CC(C)OC(=O)Nc1cnc2[nH]c(-c3ccnc(Cl)c3)nc2c1 [Example 12-1, [2-(2-Chloro-pyridin-4-yl)-3H-imidazo[4,5-b]pyridin-6-yl]-carbamic acid isopropyl ester]	0.1 to 9	0.01 to 0.5
CC(C)OC(=O)Nc1cnc2[nH]c(-c3ccccc3)cc2c1 [Example 9-1, (2-Phenyl-1H-pyrrolo[2,3-b]pyridin-5-yl)-carbamic acid isopropyl ester]	0.1 to 9	0.01 to 0.5
C=C(C)C(C)OC(=O)Nc1cnc2[nH]c(-c3ccccc3)nc2c1 (stereo not shown) [Example 1-22, (2-Phenyl-3H-imidazo[4,5-b]pyridin-6-yl)-carbamic acid 1,2-dimethyl-allyl ester]	0.1 to 9	0.01 to 0.5
COCCOc1ccc(-c2cc3cc(NC(=O)OCC(C)C)cnc3[nH]2)cc1 [Example 9-19, {2-[4-(2-Methoxy-ethoxy)-phenyl]-1H-pyrrolo[2,3-b]pyridin-5-yl}-carbamic acid isobutyl ester]	0.1 to 9	0.01 to 0.5
CC(C)OC(=O)Nc1cnc2[nH]c(-c3ccc(N4CCOCC4)nc3)nc2c1 [Example 3-7, [2-(6-Morpholin-4-yl-pyridin-3-yl)-3H-imidazo[4,5-b]pyridin-6-yl]-carbamic acid isopropyl ester]	0.1 to 9	0.01 to 0.5
CC(C)OC(=O)Nc1cnc2[nH]c(-c3ccc([S+](C)[O-])cc3)nc2c1 (stereo not shown) [Example 8-4, [2-(4-Methanesulfinyl-phenyl)-3H-imidazo[4,5-b]pyridin-6-yl]-carbamic acid isopropyl ester]	0.1 to 9	0.01 to 0.5
CC(C)OC(=O)Nc1cnc2[nH]c(-c3cccc(NS(C)(=O)=O)c3)nc2c1 [Example 7-1, [2-(3-Methanesulfonylamino-phenyl)-3H-imidazo[4,5-b]pyridin-6-yl]-carbamic acid isopropyl ester]	0.1 to 9	0.01 to 0.5
